The term IC50 denotes the point on the concentration scale where inhibition reaches its midpoint. A low value points to greater potency in that assay.

Experimental findings from patent US10053454B2 (Bristol-Myers Squibb Company, priority 2013, dated 2018) are described below.

Bounds are passed on as bounds.

For this test, the target named is BRD4 (Homo sapiens, UniProt O60885). The test can be described thus: Time Resolved Fluorescence Resonance Energy Transfer (TR-FRET) binding assay. Particulars: one of the FRET assays described (BRD4 construct not given). A general note: TR-FRET usually uses a lanthanide donor and a delayed reading to cut background.

In turn, `Cc1noc(C)c1-c1cc(C(N)=O)c2[nH]c3cc(C(=O)N4CCCCC4)ccc3c2c1` [Example 1, 3-(3,5-dimethyl-4-isoxazolyl)-7-(1-piperidinylcarbonyl)-9H-carbazole-1-carboxamide] yielded an IC50 below 0.5 µM.
As for `Cc1noc(C)c1-c1cc(C(N)=O)c2c(c1)c1ccc(C(=O)N3C[C@@H](C)O[C@@H](C)C3)cc1n2CC1CC1` [Example 2, 9-(cyclopropylmethyl)-3-(3,5-dimethyl-4-isoxazolyl)-7-((cis-2,6-dimethyl-4-morpholinyl)carbonyl)-9H-carbazole-1-carboxamide], the IC50 was below 0.05 µM.
`Cc1noc(C)c1-c1cc(C(N)=O)c2[nH]c3cc(C(=O)N4CCOCC4)ccc3c2c1` [Example 3, 3-(3,5-dimethyl-4-isoxazolyl)-7-(4-morpholinylcarbonyl)-9H-carbazole-1-carboxamide]: the IC50 was below 0.5 µM.
To `Cc1noc(C)c1-c1cc(C(N)=O)c2c(c1)c1ccc(C(=O)N3CCOCC3)cc1n2CC1CC1` [Example 4, 9-(cyclopropylmethyl)-3-(3,5-dimethyl-4-isoxazolyl)-7-(4-morpholinylcarbonyl)-9H-carbazole-1-carboxamide] belongs below 0.05 µM.
Then `Cc1noc(C)c1-c1cc(C(N)=O)c2c(c1)c1ccc(C(=O)N3CCOCC3)cc1n2S(C)(=O)=O` [Example 5, 3-(3,5-dimethyl-4-isoxazolyl)-9-(methylsulfonyl)-7-(4-morpholinylcarbonyl)-9H-carbazole-1-carboxamide], with below 0.05 µM.
To `Cc1noc(C)c1-c1cc(C(N)=O)c2c(c1)c1ccc(C(=O)N3CCC(C#N)CC3)cc1n2S(C)(=O)=O` [Example 6, 7-((4-cyano-1-piperidinyl)carbonyl)-3-(3,5-dimethyl-4-isoxazolyl)-9-(methylsulfonyl)-9H-carbazole-1-carboxamide] belongs below 0.05 µM; to `Cc1noc(C)c1-c1cc(C(N)=O)c2c(c1)c1ccc(C(=O)N3CC(F)C3)cc1n2S(C)(=O)=O` [Example 7, 3-(3,5-dimethyl-4-isoxazolyl)-7-((3-fluoro-1-azetidinyl)carbonyl)-9-(methylsulfonyl)-9H-carbazole-1-carboxamide], below 0.05 µM.
Compound `Cc1noc(C)c1-c1cc(C(N)=O)c2c(c1)c1ccc(C(=O)N3CCC(F)CC3)cc1n2S(C)(=O)=O` [Example 8, 3-(3,5-dimethyl-4-isoxazolyl)-7-((4-fluoro-1-piperidinyl)carbonyl)-9-(methylsulfonyl)-9H-carbazole-1-carboxamide] yielded an IC50 below 0.5 µM.
Then `Cc1noc(C)c1-c1cc(C(N)=O)c2c(c1)c1ccc(C(=O)N3CCC(F)(F)CC3)cc1n2S(C)(=O)=O` [Example 9, 7-((4,4-difluoro-1-piperidinyl)carbonyl)-3-(3,5-dimethyl-4-isoxazolyl)-9-(methylsulfonyl)-9H-carbazole-1-carboxamide], with below 0.05 µM; and `Cc1noc(C)c1-c1cc(C(N)=O)c2c(c1)c1ccc(C(=O)N3CCCC(N(C)C)C3)cc1n2S(C)(=O)=O` (stereo not shown) [Example 10, 7-((3-(dimethylamino)-1-piperidinyl)carbonyl)-3-(3,5-dimethyl-4-isoxazolyl)-9-(methylsulfonyl)-9H-carbazole-1-carboxamide], with below 0.05 µM; and `Cc1noc(C)c1-c1cc(C(N)=O)c2c(c1)c1ccc(C(=O)N3CC(F)(F)C3)cc1n2S(C)(=O)=O` [Example 11, 7-((3,3-difluoro-1-azetidinyl)carbonyl)-3-(3,5-dimethyl-4-isoxazolyl)-9-(methylsulfonyl)-9H-carbazole-1-carboxamide], with below 0.05 µM.
To `Cc1noc(C)c1-c1cc(C(N)=O)c2c(c1)c1ccc(C(=O)N(C)C)cc1n2S(C)(=O)=O` [Example 12, 3-(3,5-dimethyl-4-isoxazolyl)-N7,N7-dimethyl-9-(methylsulfonyl)-9H-carbazole-1,7-dicarboxamide] belongs below 0.05 µM.
In turn, `Cc1noc(C)c1-c1cc(C(N)=O)c2c(c1)c1ccc(C(=O)N3CCCC(F)C3)cc1n2S(C)(=O)=O` (stereo not shown) [Example 13, 3-(3,5-dimethyl-4-isoxazolyl)-7-((3-fluoro-1-piperidinyl)carbonyl)-9-(methylsulfonyl)-9H-carbazole-1-carboxamide] had an IC50 below 0.05 µM.
To `COC1CN(C(=O)c2ccc3c4cc(-c5c(C)noc5C)cc(C(N)=O)c4n(S(C)(=O)=O)c3c2)C1` [Example 14, 3-(3,5-dimethyl-4-isoxazolyl)-7-((3-methoxy-1-azetidinyl)carbonyl)-9-(methylsulfonyl)-9H-carbazole-1-carboxamide] belongs below 0.05 µM.
To `Cc1noc(C)c1-c1cc(C(N)=O)c2c(c1)c1ccc(C(=O)N3CCS(=O)(=O)CC3)cc1n2S(C)(=O)=O` [Example 15, 3-(3,5-dimethyl-4-isoxazolyl)-7-((1,1-dioxido-4-thiomorpholinyl)carbonyl)-9-(methylsulfonyl)-9H-carbazole-1-carboxamide] belongs below 5 µM; to `Cc1noc(C)c1-c1cc(C(N)=O)c2c(c1)c1ccc(C(=O)N3C(C)(C)CC(O)CC3(C)C)cc1n2S(C)(=O)=O` [Example 16, 3-(3,5-dimethyl-4-isoxazolyl)-7-((4-hydroxy-2,2,6,6-tetramethyl-1-piperidinyl)carbonyl)-9-(methylsulfonyl)-9H-carbazole-1-carboxamide], below 0.05 µM; to `Cc1noc(C)c1-c1cc(C(N)=O)c2c(c1)c1ccc(C(=O)N3CCCOCC3)cc1n2S(C)(=O)=O` [Example 17, 3-(3,5-dimethyl-4-isoxazolyl)-9-(methylsulfonyl)-7-(1,4-oxazepan-4-ylcarbonyl)-9H-carbazole-1-carboxamide], below 0.05 µM.
Compound `Cc1noc(C)c1-c1cc(C(N)=O)c2c(c1)c1ccc(C(=O)N3CCC(N(C)C)C3)cc1n2S(C)(=O)=O` (stereo not shown) [Example 18, 7-((3-(dimethylamino)-1-pyrrolidinyl)carbonyl)-3-(3,5-dimethyl-4-isoxazolyl)-9-(methylsulfonyl)-9H-carbazole-1-carboxamide] displayed an IC50 below 0.05 µM.
To `Cc1noc(C)c1-c1cc(C(N)=O)c2c(c1)c1ccc(C(=O)N3CNC(=O)C3)cc1n2S(C)(=O)=O` [Example 19, 3-(3,5-dimethyl-4-isoxazolyl)-9-(methylsulfonyl)-7-((4-oxo-1-imidazolidinyl)carbonyl)-9H-carbazole-1-carboxamide] belongs below 0.5 µM; to `Cc1noc(C)c1-c1cc(C(N)=O)c2c(c1)c1ccc(C(=O)N3CCC(C#N)CC3)cc1n2S(=O)(=O)C1CC1` [Example 20, 7-((4-cyano-1-piperidinyl)carbonyl)-9-(cyclopropylsulfonyl)-3-(3,5-dimethyl-4-isoxazolyl)-9H-carbazole-1-carboxamide], below 0.05 µM.
Regarding `Cc1noc(C)c1-c1cc(C(N)=O)c2c(c1)c1ccc(C(=O)N3CC(F)C3)cc1n2S(=O)(=O)C1CC1` [Example 21, 9-(cyclopropylsulfonyl)-3-(3,5-dimethyl-4-isoxazolyl)-7-((3-fluoro-1-azetidinyl)carbonyl)-9H-carbazole-1-carboxamide], the IC50 was below 0.05 µM.
Take `Cc1noc(C)c1-c1cc(C(N)=O)c2c(c1)c1ccc(C(=O)N3CCCC(F)C3)cc1n2S(=O)(=O)C1CC1` (stereo not shown) [Example 23, 9-(cyclopropylsulfonyl)-3-(3,5-dimethyl-4-isoxazolyl)-7-((3-fluoro-1-piperidinyl)carbonyl)-9H-carbazole-1-carboxamide]: the 50% inhibitory concentration (IC50) was below 0.05 µM.
